# Assay results as given in article PMC6029141, “Population Pharmacokinetics of Vancomycin in Chinese ICU Neonates: Initial Dosage Recommendations” (Frontiers in Pharmacology, 2018).
# Where two headings read alike, the source gives them in different places.
# Columns and labels:
# [1] = cited from earlier work
# Excerpt: The maximum a posteriori Bayesian estimation method has already been used to support vancomycin dosing decisions in adults (Deng et al., [2013]; Jacqz-Aigrain et al., [2015]) and children (Le et al., [2014]). To obtain accurate estimation with this method for individualized therapy, it is crucial that reliable population pharmacokinetic characteristics are known for the target patients. […] (H ...
# [2] = Population pharmacokinetic modeling of vancomycin (NONMEM, FOCE-I, one-compartment, first-order elimination); conditions: for θ4, volume of distribution V / θ5, exponent of body weight on V / θ1, clearance CL: final model
# Experimental: Chinese neonates who received vancomycin in the neonatal ICU at Shanghai Children's Hospital (Shanghai, China) between January 2013 and December 2016 were enrolled. Patients included in this study were neonates with PMA ≤ 48 weeks for preterm neonates and with postnatal age (PNA) ≤ 28 days for term neonates. All patients were treated with vancomycin for at least 3 days, and at least one vancomycin concentration was assayed. Patients with extracorporeal membrane oxygenation or continuous renal replacement therapy were excluded from the current study. The following information was retrospectively collected from electronic medical records: gestational age (GA), PMA, PNA, body weight (WT), dosing history and concentration of vancomycin, serum creatinine (Scr) levels, clinical laboratory tests of other renal and hepatic functions, and co-administered medications.
# The dose of vancomycin (Vancocin, Lilly, S.A, Suzhou, China) was 10–15 mg/kg, which was administrated every 8 h (q8h) or every 12 h (q12h) with a 2-h infusion, in accordance with local protocols. Blood samples were collected 1 h after completion of drug infusion (peak concentration) or half an hour before the start of vancomycin administration (trough concentration) for each patient. Trough and peak concentrations were obtained after at least four repeated doses. Potential outlier data points (observations) were identified by employing conditional weighted residual (CWRES) results outside a range of ± 6 (Byon et al., [2013]).
# Population pharmacokinetic modeling was performed using the NONMEM program (Version 7.4; Icon Inc, PA, USA) compiled with gFortran (Version 4.9.2; http://www.gfortran.org). R (Version 3.3.1; http://www.r-project.org) and the Xpose package (Version 4.5.3; http://xpose.sourceforge.net) were used for visual diagnosis. The first-order conditional estimation method with η–ε interaction (FOCE-I) was used throughout the model-building procedure (Wählby et al., [2001]).
# The vancomycin concentration data were fitted by the one or two compartment with a first-order elimination model. NONMEM subroutines were specified as ADVAN1-TRANS2 or ADVAN3-TRANS4, respectively.
# An exponential model (Equation 1) was used to account for inter-individual variability (IIV):
# Residual unexplained variability was tested by an additive model (Equation 2), exponential model (Equation 3), or a combined additive and exponential model (Equation 4):
# Four different models based on allometric scaling were tested using Equation (5): (5) Pi= TV(P)×(COV/COVmedian)^θ×MF
# The robustness of the model was assessed using a nonparametric bootstrap (Ette, [1997]), with repetition of 2000 NONMEM runs of the final model. The bootstrap median parameter values and the percentile bootstrap 95% confidence intervals were compared with the respective values estimated from the final model.
# [3] = Vancomycin trough and peak concentrations, fluorescence polarization immunoassay; format: in vivo, Chinese neonates; conditions: after at least four doses, 10–15 mg/kg q8h or q12h, FPIA
# Experimental: Concentrations of vancomycin were determined using the fluorescence polarization immunoassay with an ARCHITECT i2000SR (Abbott Laboratories, Chicago, IL, USA). The limit of detection was 1 mg/L, and the calibration range of this assay was 3 to 50 mg/L. The intra-day and inter-day coefficients of variation (CVs) were all < 20%.
# [4] = Model III, WT-dependent exponent model
# [5] = Model IV, age-dependent exponent model
smiles,measurement,setting,value
CN[C@H](CC(C)C)C(=O)N[C@H]1C(=O)N[C@@H](CC(N)=O)C(=O)N[C@H]2C(=O)N[C@H]3C(=O)N[C@H](C(=O)N[C@H](C(=O)O)c4cc(O)cc(O)c4-c4cc3ccc4O)[C@H](O)c3ccc(c(Cl)c3)Oc3cc2cc(c3O[C@@H]2O[C@H](CO)[C@@H](O)[C@H](O)[C@H]2O[C@H]2C[C@](C)(N)[C@H](O)[C@H](C)O2)Oc2ccc(cc2Cl)[C@H]1O [vancomycin],clearance (CL),"[1]; adult Caucasian patients, first of two values, ref Guay et al., [1993], Sánchez et al., [2010]",4.03 ± 1.7 L/h
same,clearance (CL),"[1]; adult Caucasian patients, second of two values, ref Guay et al., [1993], Sánchez et al., [2010]",5.83 ± 2.39 L/h
same,clearance (CL),"[1]; adult Chinese patients, second of two values, ref He et al., [2014], Lin et al., [2015]",6.06 ± 2.46 L/h
same,average clearance across all three populations,"[1]; neonatal patient with weight of 3 kg and PMA of 40 weeks, Caucasian, Japanese, Malaysian neonates, ref Seay et al., [1994] to Lo et al., [2010] (b5)",0.08 to 0.50 L/h
same,"k, exponent for body weight (RSE%)","[2]; Model I, simple exponent model",1.57 (10.9%)
same,CLp typical value of apparent clearance (RSE%),"[2]; Model I, simple exponent model, MF = 1",0.319 (5.1%) L/h
same,Hill (RSE%),"[2]; Model II, maturation model",4.45 (105%)
same,"TM50, age at which clearance maturation reaches 50% of that of adults (RSE%)","[2]; Model II, maturation model",46.9 (102%)
same,CLp typical value of apparent clearance (RSE%),"[2]; Model II, maturation model, k fixed 0.75",0.911 (235%) L/h
same,"k50, body weight at which there is a 50 % decrease in the kmax (RSE%)",[2]; Model III,12.7 (53.1%)
same,"kmax, maximum decrease of the exponent (RSE%)",[2]; Model III,1.08 (25%)
same,"θ0, exponent at a theoretical WT of 0 kg (RSE%)",[2]; Model III,1.57 (10.9%)
same,CLp typical value of apparent clearance (RSE%),[2]; [4],0.319 (5.1%) L/h
same,Hill (RSE%),[2]; [4],23.6 (17.2%)
same,"k50, age at which there is a 50 % decrease in the kmax (RSE%)",[2]; Model IV,62.3 (22%)
same,"kmax, maximum decrease of the exponent (RSE%)",[2]; Model IV,1.08 (25%)
same,"θ0, exponent at age at birth (RSE%)",[2]; Model IV,1.57 (10.9%)
same,CLp typical value of apparent clearance (RSE%),[2]; [5],0.319 (5.1%) L/h
same,Hill (RSE%),[2]; [5],60.7 (23.4%)
same,"θ4, volume of distribution V","[2]; NONMEM estimate, WT 2.9 kg",2.63 L
same,"θ5, exponent of body weight on V","[2]; NONMEM estimate, [WT(kg)/2.9]^θ5",1.05
same,"θ1, clearance CL","[2]; NONMEM estimate, typical neonate WT 2.9 kg, Scr 23.3 μmol/L",0.309 L/h
same,"θ1, clearance CL","[2]; bootstrap median, 2000 runs",0.308 L/h
same,"θ4, volume of distribution V","[2]; bootstrap median, 2000 runs",2.62 L
same,"θ5, exponent of body weight on V","[2]; bootstrap median, 2000 runs",1.06
same,"Peak concentration, median (range)","[3]; 1 h after completion of 2-h infusion, 90 peak samples",20.3 (4.09–51.9) mg/L
same,Peak concentration,"[3]; column 'Modeling group' (value ± spread), 1 h after completion of 2-h infusion, 90 peak samples",22.3 ± 11.0 mg/L
same,Trough concentration,"[3]; column 'Modeling group' (value ± spread), half an hour before administration, 2-h infusion, 75 trough samples, 80 neonates",11.2 ± 7.92 mg/L
same,"Trough concentration, median (range)","[3]; half an hour before administration, 2-h infusion, 75 trough samples",9.15 (3.14–42.9) mg/L
